Laboratory results: BigSolDB 2.1

O=C(O)CSc1ccc2ccccc2c1
solubility (mole fraction)
Conditions	278.15 K	283.15 K	288.15 K	293.15 K	298.15 K	303.15 K	308.15 K	313.15 K	318.15 K	323.15 K
in DMF	0.00524	0.00586	0.0066	0.00738	0.00828	0.00917	0.0101	0.0112	0.0122	0.0135
in ethanol	0.0014	0.0018	0.00234	0.00282	0.00336	0.00394	0.00456	0.0052	0.00584	0.00669
in isopropanol	0.000227	0.0003	0.000383	0.000481	0.00058	0.000682	0.000801	0.000919	0.00105	0.0012
in methanol	0.00053	0.000675	0.000828	0.00102	0.00119	0.0014	0.0016	0.0018	0.00204	0.00235
in water	1.42e-06	1.95e-06	2.54e-06	3.16e-06	3.88e-06	4.53e-06	5.33e-06	6.1e-06	7e-06	8.05e-06
